From patent US10034477B2, “Pyrido-1,3-oxazine-2,4-dione compounds with fungicidal activity” (Dow AgroSciences LLC, priority 2016, dated 2018)
Read-outs that look alike come from different tables or passages of the source.

What was measured:
Type in all cases: in vivo
[1] = system: Puccinia triticina; test: Fungicidal activity: wheat brown rust (PUCCRT), disease control on wheat seedlings; settings: LV activity at 121.5 g/H, wheat (variety Yuma)
Protocol: (§1) Technical grades of materials were dissolved in acetone, which were then mixed with nine volumes of water (H2O) containing 110 ppm Triton X-100. The fungicide solutions were applied onto wheat seedlings using an automated booth sprayer to run-off. All sprayed plants were allowed to air dry prior to further handling. All fungicides were evaluated using the aforementioned method for their activity vs. all target diseases, unless stated otherwise. Wheat leaf blotch and brown rust activity were also evaluated using track spray applications, in which case the fungicides were formulated as EC formulations, containing 0.1% Trycol 5941 in the spray solutions. Wheat plants (variety Yuma) were grown from seed in a greenhouse in 50% mineral soil/50% soil-less Metro mix until the first leaf was fully emerged, with 7-10 seedlings per pot. These plants were inoculated with an aqueous spore suspension of Zymoseptoria tritici either prior to or after fungicide treatments. After inoculation the plants were kept in 100% relative humidity (one day in a dark dew chamber followed by two to three days in a lighted dew chamber at 20° C.) to permit spores to germinate and infect the leaf. The plants were then transferred to a greenhouse set at 20° C. for disease to develop. When disease symptoms were fully expressed on the 1st leaves of untreated plants, infection levels were assessed on a scale of 0 to 100 percent disease severity. Percent disease control was calculated using the ratio of disease severity on treated plants relative to untreated plants. Wheat plants (variety Yuma) were grown from seed in a greenhouse in 50% mineral soil/50% soil-less Metro mix until the first leaf was fully emerged, with 7-10 seedlings per pot. These plants were inoculated with an aqueous spore suspension of Puccinia triticina either prior to or after fungicide treatments. After inoculation the plants were kept in a dark dew room at 22° C. with 100% relative humidity overnight to permit spores to germinate and infect the leaf. The plants were then transferred to a greenhouse set at 24° C. for disease to develop. Fungicide formulation, application and disease assessment followed the procedures as described in the Example A. Results of the evaluations are shown below in Table 4.

[2] = system: Zymoseptoria tritici; test: Fungicidal activity: leaf blotch of wheat (SEPTTR), disease control on wheat seedlings; settings: LV activity at 121.5 g/H, wheat (variety Yuma)
Protocol: as §1, with “plants.” for “plants. Wheat plants (variety Yuma) were grown from seed in a greenhouse in 50% mineral soil/50% soil-less Metro mix until the first leaf was fully emerged, with 7-10 seedlings per pot. These plants were inoculated with an aqueous spore suspension of Puccinia triticina either prior to or after fungicide treatments. After inoculation the plants were kept in a dark dew room at 22° C. with 100% relative humidity overnight to permit spores to germinate and infect the leaf. The plants were then transferred to a greenhouse set at 24° C. for disease to develop. Fungicide formulation, application and disease assessment followed the procedures as described in the Example A. Results of the evaluations are shown below in Table 4.”

[3] = system: Phakopsora pachyrhizi; test: Fungicidal activity: Asian soybean rust (PHAKPA), disease control on soybean seedlings; settings: soybean (variety Williams 82)
Protocol: Technical grades of materials were dissolved in acetone, which were then mixed with nine volumes of H2O containing 0.011% Tween 20. The fungicide solutions were applied onto soybean seedlings using an automated booth sprayer to run-off. All sprayed plants were allowed to air dry prior to further handling. Soybean plants (variety Williams 82) were grown in soil-less Metro mix, with one plant per pot. Two week old seedlings were used for testing. Plants were inoculated either 3 days prior to or 1 day after fungicide treatments. Plants were incubated for 24 h in a dark dew room at 22° C. and 100% relative humidity then transferred to a growth room at 23° C. for disease to develop. Disease severity was assessed on the sprayed leaves.

[4] = 24 h, 1 Day Protectant, read-out: PUCCRT 1DP disease control rating
[5] = 72 h, 3 Day Curative, read-out: PUCCRT 3DC disease control rating
[6] = 24 h, 1 Day Protectant, read-out: SEPTTR 1DP disease control rating
[7] = 72 h, 3 Day Curative, read-out: SEPTTR 3DC disease control rating
[8] = 72 h, 3 Day Curative, read-out: PHAKPA 3DC disease control rating
[9] = 24 h, 1 Day Protectant, read-out: PHAKPA 1DP disease control rating

| SMILES | pest or weed control at 121.5 g/ha [1, 4] [%] | pest or weed control at 121.5 g/ha [1, 5] [%] | pest or weed control at 121.5 g/ha [2, 6] [%] | pest or weed control at 121.5 g/ha [2, 7] [%] | pest or weed control at 25 ppm [3, 8] [%] | pest or weed control at 25 ppm [3, 9] [%] |
| --- | --- | --- | --- | --- | --- | --- |
| COc1ccnc2c(=O)n([C@@H](C)C(=O)O[C@@H](C)C(c3ccc(F)cc3F)c3ccc(F)cc3F)c(=O)oc12 [Compound 2] | > 80 | ≤ 80 | > 80 | > 80 |  |  |
| COc1ccnc2c(=O)n([C@@H](C)C(=O)O[C@@H](C)[C@H](Oc3ccccc3)C(C)(C)C)c(=O)oc12 [Compound 4] | > 80 | > 80 |  | ≤ 80 |  |  |
| CCC(CC)[C@@H](Oc1ccc(Cl)cc1)[C@H](C)OC(=O)[C@H](C)n1c(=O)oc2c(OC)ccnc2c1=O [Compound 5] | > 80 | ≤ 80 | > 80 | ≤ 80 |  |  |
| CC[C@H](OC(=O)[C@H](C)n1c(=O)oc2c(OC)ccnc2c1=O)[C@@H](C)Oc1ccccc1 [Compound 6] |  | ≤ 80 |  | ≤ 80 |  |  |
| COc1cc(F)ccc1[C@@H](c1ccc(F)c(C)c1)[C@H](C)OC(=O)[C@H](C)n1c(=O)oc2c(OC)ccnc2c1=O [Compound 7] | > 80 |  | > 80 | > 80 |  |  |
| COc1ccc(C(c2ccc(OC)cc2OC)[C@H](C)OC(=O)[C@H](C)n2c(=O)oc3c(OC)ccnc3c2=O)c(OC)c1 [Compound 8] | ≤ 80 | ≤ 80 | > 80 | > 80 |  |  |
| CCC(CC)[C@@H](Oc1cccc(Cl)c1)[C@H](C)OC(=O)[C@H](C)n1c(=O)oc2c(OC)ccnc2c1=O [Compound 9] | > 80 | ≤ 80 | ≤ 80 | ≤ 80 |  |  |
| CCC[C@@H](Oc1cccc(OC)c1)[C@H](C)OC(=O)[C@H](C)n1c(=O)oc2c(OC)ccnc2c1=O [Compound 10] | > 80 | > 80 |  | > 80 |  |  |
| COc1ccnc2c(=O)n([C@@H](C)C(=O)O[C@@H](C)[C@H](c3ccc(F)cc3)c3ccc(F)cc3C)c(=O)oc12 [Compound 11] | ≤ 80 |  | > 80 | > 80 |  |  |
| CCCCC[C@H](OC(=O)[C@H](C)n1c(=O)oc2c(OC)ccnc2c1=O)[C@@H](C)Oc1ccccc1 [Compound 13] |  |  | ≤ 80 | ≤ 80 | ≤ 80 |  |
| COc1ccnc2c(=O)n([C@@H](C)C(=O)O[C@@H](C)C(c3cccc(F)c3)c3cccc(F)c3)c(=O)oc12 [Compound 14] | ≤ 80 | ≤ 80 | > 80 | > 80 |  |  |
| COc1ccnc2c(=O)n([C@@H](C)C(=O)O[C@@H](C)[C@H](Oc3ccccc3)c3ccc(F)cc3Cl)c(=O)oc12 [Compound 15] | > 80 | ≤ 80 | > 80 | > 80 |  |  |
| CCC(CC)[C@@H](Oc1ccccc1Cl)[C@H](C)OC(=O)[C@H](C)n1c(=O)oc2c(OC)ccnc2c1=O [Compound 16] | > 80 | ≤ 80 | ≤ 80 | > 80 |  |  |
| COc1ccnc2c(=O)n([C@@H](C)C(=O)O[C@@H](C)[C@H](c3ccccc3)c3ccc(C)cc3F)c(=O)oc12 [Compound 17] | > 80 |  | > 80 | > 80 |  |  |
| COc1ccc(C(c2ccc(OC)cc2)[C@H](C)OC(=O)[C@H](C)n2c(=O)oc3c(OC)ccnc3c2=O)cc1 [Compound 18] | > 80 | ≤ 80 | > 80 | > 80 | ≤ 80 | ≤ 80 |
| COc1ccnc2c(=O)n([C@@H](C)C(=O)O[C@@H](C)[C@@H](c3ccc(F)cc3)c3ccc(F)cc3C)c(=O)oc12 [Compound 19] | > 80 | ≤ 80 | > 80 | > 80 | ≤ 80 | > 80 |
| COc1cc(F)ccc1[C@@H](c1ccc(F)cc1)[C@H](C)OC(=O)[C@H](C)n1c(=O)oc2c(OC)ccnc2c1=O [Compound 20] | > 80 | ≤ 80 | > 80 | > 80 |  |  |
| COc1ccnc2c(=O)n([C@@H](C)C(=O)O[C@@H](C)[C@H](Oc3ccccc3Cl)c3ccccc3)c(=O)oc12 [Compound 21] | > 80 |  | > 80 | ≤ 80 | ≤ 80 |  |
| COc1ccnc2c(=O)n([C@@H](C)C(=O)O[C@@H](C)[C@@H](c3ccccc3)c3ccc(F)c(C)c3)c(=O)oc12 [Compound 22] | > 80 | ≤ 80 | > 80 | > 80 | ≤ 80 | ≤ 80 |
| COc1ccc(O[C@@H](C)[C@H](OC(=O)[C@H](C)n2c(=O)oc3c(OC)ccnc3c2=O)C(C)C)cc1 [Compound 23] | > 80 | > 80 | ≤ 80 | > 80 | ≤ 80 | > 80 |
| COc1ccnc2c(=O)n([C@@H](C)C(=O)O[C@@H](C)[C@H](Oc3cccc(F)c3)C(C)C)c(=O)oc12 [Compound 24] | > 80 | > 80 | ≤ 80 | > 80 | ≤ 80 | > 80 |
| COc1ccnc2c(=O)n([C@@H](C)C(=O)O[C@@H](C)[C@H](c3ccc(C)cc3)c3ccc(C)cc3F)c(=O)oc12 [Compound 25] | > 80 | ≤ 80 | > 80 | > 80 |  | ≤ 80 |
| COc1ccnc2c(=O)n([C@@H](C)C(=O)O[C@H](C)C(c3ccc(F)cc3)c3ccc(F)cc3)c(=O)oc12 [Compound 29] |  |  |  | ≤ 80 | ≤ 80 |  |
| COc1ccnc2c(=O)n([C@H](C)C(=O)O[C@H](C)C(c3ccc(F)cc3)c3ccc(F)cc3)c(=O)oc12 [Compound 34] |  |  |  |  | ≤ 80 | ≤ 80 |
| CCC[C@H](OC(=O)[C@H](C)n1c(=O)oc2c(OC)ccnc2c1=O)[C@@H](C)Oc1ccccc1 [Compound 35] |  |  |  | ≤ 80 | ≤ 80 |  |
